Assay results taken from the supplement of paper PMC10627819.
In brackets after ≈: the same amount, converted by molar mass.

Legend:
S. aureus Newman [1] = tested on: S. aureus Newman
S. aureus DSM 20231 [2] = tested on: S. aureus DSM 20231
S. pneumoniae D39V [3] = tested on: S. pneumoniae D39V
B. subtilis 168 [4] = tested on: B. subtilis 168
S. pneumoniae D39V [5] = assay: fitness (endpoint OD595 vs no drug) (fraction); higher = more growth
How it was run: (§1)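 Plates with 384 wells were inoculated at OD595 0.01 using 30 µl of TSB, LB Lennox or CY, or 55 µl for S. pneumoniae. Incubation was at 37 °C, with OD595 measured every 30 min for 14 h. Fitness is the stationary-phase transition optical density over the robust mean of no-drug control wells, after first-reading background subtraction; it is capped at 1.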

S. aureus Newman [6] = assay: Bliss interaction score (quartile over a dose matrix) (fitness difference); higher = more antagonism (negative = synergy)
How it was run: (§2)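 Quartiles summarise the Bliss score over technical, biological and donor/recipient replicates, where the score is observed minus expected fitness under a product model. Expected fitness uses single-drug values inferred from combination data. Fitness is OD595 at entry into stationary phase over the plate's robust no-drug mean, capped at 1.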

S. aureus DSM 20231 [7] = assay: as above
How it was run: as §2

S. pneumoniae D39V [8] = assay: as above
How it was run: as §2

B. subtilis 168 [9] = assay: as above
How it was run: as §2

S. aureus Newman [10] = assay: fitness (endpoint OD595 vs no drug) (fraction); higher = more growth
How it was run: as §1

S. aureus DSM 20231 [11] = assay: as above
How it was run: as §1

B. subtilis 168 [12] = assay: as above
How it was run: as §1
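For Bliss interaction score (quartile over a dose matrix) in this document: first quartile when negative (synergy) and third quartile when positive (antagonism).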

CO[C@H]1/C=C/O[C@@]2(C)Oc3c(C)c(O)c4c(O)c(c(/C=N/N5CCN(C)CC5)c(O)c4c3C2=O)NC(=O)/C(C)=C\C=C\[C@H](C)[C@H](O)[C@@H](C)[C@@H](O)[C@@H](C)[C@H](OC(C)=O)[C@@H]1C [Rifampicin]
Conditions	MIC [µg/mL]
B. subtilis 168 [4]	0.125 (≈ 0.152 µM)
S. aureus DSM 20231 [2]	0.018 (≈ 0.0219 µM)
S. aureus Newman [1]	0.035 (≈ 0.0425 µM)
S. pneumoniae D39V [3]	0.4 (≈ 0.486 µM)

S. pneumoniae D39V [5]
Conditions	fitness
0.025 µg/mL	0.961
0.05 µg/mL	0.904
0.1 µg/mL	0.322
0.2 µg/mL	0.144

CN[C@@H]1[C@H](O)[C@H](NC)[C@H]2O[C@@]3(O)C(=O)C[C@@H](C)O[C@H]3O[C@@H]2[C@H]1O [Spectinomycin] + CN(N=O)C(=O)N[C@@H](C=O)[C@@H](O)[C@H](O)[C@H](O)CO [Streptozotocin]
Conditions	Bliss interaction score
B. subtilis 168 [9]	-0.0285
S. aureus DSM 20231 [7]	0.0831
S. aureus Newman [6]	-0.046
S. pneumoniae D39V [8]	-0.0505

fitness
Conditions	partner 0.15 µg/mL	partner 0.3 µg/mL	partner 0.6 µg/mL	partner 1.2 µg/mL	partner 2.4 µg/mL	partner 4.8 µg/mL
S. aureus DSM 20231 [11], first compound 4 µg/mL	0.831	0.761	0.757	–	–	–
S. aureus DSM 20231 [11], first compound 8 µg/mL	0.875	0.798	0.754	–	–	–
S. aureus DSM 20231 [11], first compound 16 µg/mL	0.769	0.781	0.722	–	–	–
S. aureus Newman [10], first compound 4 µg/mL	0.818	0.665	0.51	–	–	–
S. aureus Newman [10], first compound 8 µg/mL	0.812	0.631	0.478	–	–	–
S. aureus Newman [10], first compound 16 µg/mL	0.813	0.614	0.427	–	–	–
S. pneumoniae D39V [5], first compound 4 µg/mL	–	–	–	0.947	0.928	0.913
S. pneumoniae D39V [5], first compound 8 µg/mL	–	–	–	0.847	0.832	0.81

fitness, one replicate
Conditions	partner 0.15 µg/mL	partner 0.3 µg/mL	partner 0.6 µg/mL	partner 1.2 µg/mL	partner 2.4 µg/mL	partner 4.8 µg/mL
B. subtilis 168 [12], first compound 2 µg/mL	0.961	0.958	0.991	–	–	–
B. subtilis 168 [12], first compound 4 µg/mL	≥ 1	≥ 1	≥ 1	–	–	–
B. subtilis 168 [12], first compound 8 µg/mL	0.977	0.832	0.926	–	–	–
S. aureus DSM 20231 [11], first compound 32 µg/mL	0.674	0.696	0.686	–	–	–
S. aureus DSM 20231 [11], first compound 64 µg/mL	0.0638	0.0605	0.0885	–	–	–
S. aureus Newman [10], first compound 32 µg/mL	0.519	0.423	0.0868	–	–	–
S. aureus Newman [10], first compound 64 µg/mL	0.0732	0.067	0.0303	–	–	–
S. pneumoniae D39V [5], first compound 16 µg/mL	–	–	–	0.764	0.841	0.686

CC(=O)NC[C@H]1CN(c2ccc(N3CCOCC3)c(F)c2)C(=O)O1 [Linezolid]
Conditions	MIC [µg/mL]
B. subtilis 168 [4]	0.5 (≈ 1.48 µM)

fitness
Conditions	0.125 µg/mL	0.2 µg/mL	0.25 µg/mL	0.4 µg/mL	0.5 µg/mL	0.8 µg/mL
B. subtilis 168 [12]	0.722	–	0.239	–	0.0555	–
S. aureus DSM 20231 [11]	0.923	–	0.648	–	0.16	–
S. pneumoniae D39V [5]	–	0.665	–	0.412	–	0.227

CN[C@H](CC(C)C)C(=O)N[C@H]1C(=O)N[C@@H](CC(N)=O)C(=O)N[C@H]2C(=O)N[C@H]3C(=O)N[C@H](C(=O)N[C@H](C(=O)O)c4cc(O)cc(O)c4-c4cc3ccc4O)[C@H](O[C@H]3C[C@](C)(N)[C@@H](O)[C@H](C)O3)c3ccc(c(Cl)c3)Oc3cc2cc(c3O[C@@H]2O[C@H](CO)[C@@H](O)[C@H](O)[C@H]2O[C@H]2C[C@](C)(NCc3ccc(-c4ccc(Cl)cc4)cc3)[C@@H](O)[C@H](C)O2)Oc2ccc(cc2Cl)[C@H]1O [Oritavancin]
Conditions	MIC [µg/mL]
S. aureus DSM 20231 [2]	4.5 (≈ 2.51 µM)
S. aureus Newman [1]	4.5 (≈ 2.51 µM)

CC[C@H](C)[C@H](N)C1=N[C@H](C(=O)N[C@@H](CC(C)C)C(=O)N[C@H](CCC(=O)O)C(=O)N[C@H](C(=O)N[C@H]2CCCCNC(=O)[C@H](CC(N)=O)NC(=O)[C@@H](CC(=O)O)NC(=O)[C@H](Cc3cnc[nH]3)NC(=O)[C@@H](Cc3ccccc3)NC(=O)[C@H]([C@@H](C)CC)NC(=O)[C@@H](CCCN)NC2=O)[C@@H](C)CC)CS1 [Bacitracin]
main component drawn
Conditions	MIC [µg/mL]
B. subtilis 168 [4]	300 (≈ 211 µM)
S. aureus DSM 20231 [2]	80 (≈ 56.2 µM)
S. aureus Newman [1]	75 (≈ 52.7 µM)
S. pneumoniae D39V [3]	1.17 (≈ 0.824 µM)

fitness, main component drawn
Conditions	18.75 µg/mL	37.5 µg/mL	75 µg/mL	150 µg/mL
B. subtilis 168 [12]	–	0.936	0.912	0.802
S. aureus DSM 20231 [11]	0.628	0.0499	0.0064	–
S. aureus Newman [10]	0.683	0.275	0	–

CC[C@H]1OC(=O)[C@H](C)[C@@H](O[C@H]2C[C@@](C)(OC)[C@@H](O)[C@H](C)O2)[C@H](C)[C@@H](O[C@@H]2O[C@H](C)C[C@H](N(C)C)[C@H]2O)[C@](C)(O)C[C@@H](C)C(=O)[C@H](C)[C@@H](O)[C@]1(C)O [Erythromycin]
Conditions	MIC [µg/mL]
S. aureus DSM 20231 [2]	0.5 (≈ 0.681 µM)
S. aureus Newman [1]	0.5 (≈ 0.681 µM)
S. pneumoniae D39V [3]	0.123 (≈ 0.168 µM)

fitness
Conditions	0.0312 µg/mL	0.0625 µg/mL	0.125 µg/mL	0.25 µg/mL	0.5 µg/mL
B. subtilis 168 [12]	0.926	0.704	0.0499	0.0212	–
S. aureus Newman [10]	0.964	0.889	0.594	0.111	0.0101

CN[C@@H]1[C@H](O[C@H]2[C@H](O[C@H]3[C@H](O)[C@@H](O)[C@H](N=C(N)N)[C@@H](O)[C@@H]3N=C(N)N)O[C@@H](C)[C@]2(O)C=O)O[C@@H](CO)[C@H](O)[C@H]1O [Streptomycin]
Conditions	MIC [µg/mL]
B. subtilis 168 [4]	8 (≈ 13.8 µM)
S. aureus DSM 20231 [2]	8 (≈ 13.8 µM)
S. aureus Newman [1]	8 (≈ 13.8 µM)
S. pneumoniae D39V [3]	8 (≈ 13.8 µM)

fitness
Conditions	1 µg/mL	2 µg/mL	4 µg/mL	8 µg/mL
B. subtilis 168 [12]	–	0.954	0.775	0.0378
S. aureus Newman [10]	0.971	0.954	0.899	0.579
S. pneumoniae D39V [5]	–	0.932	0.943	0.914

CN[C@@H]1[C@H](O)[C@H](NC)[C@H]2O[C@@]3(O)C(=O)C[C@@H](C)O[C@H]3O[C@@H]2[C@H]1O [Spectinomycin] + CN[C@H](CC(C)C)C(=O)N[C@H]1C(=O)N[C@@H](CC(N)=O)C(=O)N[C@H]2C(=O)N[C@H]3C(=O)N[C@H](C(=O)N[C@H](C(=O)O)c4cc(O)cc(O)c4-c4cc3ccc4O)[C@H](O)c3ccc(c(Cl)c3)Oc3cc2cc(c3O[C@@H]2O[C@H](CO)[C@@H](O)[C@H](O)[C@H]2O[C@H]2C[C@](C)(N)[C@H](O)[C@H](C)O2)Oc2ccc(cc2Cl)[C@H]1O [Vancomycin]
Conditions	Bliss interaction score
B. subtilis 168 [9]	0.0821
S. aureus DSM 20231 [7]	-0.059
S. aureus Newman [6]	0.0699
S. pneumoniae D39V [8]	-0.0797

fitness
Conditions	first compound 4 µg/mL	first compound 8 µg/mL	first compound 16 µg/mL
S. aureus DSM 20231 [11], partner 0.1875 µg/mL	0.906	0.938	0.85
S. aureus DSM 20231 [11], partner 0.375 µg/mL	0.898	0.893	0.774
S. aureus DSM 20231 [11], partner 0.75 µg/mL	≥ 1	0.985	0.908
S. aureus Newman [10], partner 0.1875 µg/mL	0.945	0.971	0.906
S. aureus Newman [10], partner 0.375 µg/mL	0.916	0.979	0.921
S. aureus Newman [10], partner 0.75 µg/mL	0.928	0.946	0.892
S. pneumoniae D39V [5], partner 0.03125 µg/mL	0.979	0.933	0.835
S. pneumoniae D39V [5], partner 0.0625 µg/mL	0.902	0.918	0.804
S. pneumoniae D39V [5], partner 0.125 µg/mL	–	0.878	–

fitness, one replicate
Conditions	partner 0.1875 µg/mL	partner 0.25 µg/mL	partner 0.375 µg/mL	partner 0.5 µg/mL	partner 0.75 µg/mL
S. aureus DSM 20231 [11], first compound 32 µg/mL	0.741	–	0.74	–	0.737
S. aureus DSM 20231 [11], first compound 64 µg/mL	0.0522	–	0.0729	–	0.0868
S. aureus Newman [10], first compound 32 µg/mL	0.636	–	0.623	–	0.613
S. aureus Newman [10], first compound 64 µg/mL	0.119	–	0.071	–	0.0594
S. pneumoniae D39V [5], first compound 4 µg/mL	–	0.437	–	0.0734	–
S. pneumoniae D39V [5], first compound 8 µg/mL	–	0.293	–	0.0189	–
